This note sets out measurements from ChEMBL document CHEMBL1129023, “Nucleosides and nucleotides. 150. Enzymatic synthesis of 5-phosphatidyl derivatives of (CNDAC) and their notable antitumor effects in mice1” (1996).

Assay type in all cases: functional
Assay [1] concerns Mus musculus. The assay is described as follows: Compound was evaluated for the percent increase in life span against M5076 sarcoma in mice at a sc dose of 100 mg/kg/day. The following applies: route subcutaneous.
The subject of assay [2] is Mus musculus. The assay is described as follows: Compound was evaluated for the percent increase in life span against M5076 sarcoma in mice at a sc dose of 200 mg/kg/day. The note with it: route subcutaneous.
Assay [3] concerns Mus musculus. The experiment in a line: Compound was evaluated for the percent increase in life span against M5076 sarcoma in mice at a sc dose of 300 mg/kg/day. The following applies: route subcutaneous.
For assay [4], the system named is Mus musculus. The experiment in a line: Compound was evaluated for the body weight change from day 1 to day 12 against M5076 sarcoma in mice at a sc dose of 100 mg/kg/day. The following applies: route subcutaneous.
Assay [5] concerns Mus musculus. The experiment in a line: Compound was evaluated for the body weight change from day 1 to day 12 against M5076 sarcoma in mice at a sc dose of 200 mg/kg/day. The following applies: route subcutaneous.
The test system of assay [6] is Mus musculus. The experiment in a line: Compound was evaluated for the tumor growth inhibition on day 21 against M5076 sarcoma implanted sc in mice at a dose of 100 mg/kg/day. The note with it: 504 h, route subcutaneous, read-out: TGI.
Assay [7] relates to Mus musculus. The assay is described as follows: Compound was evaluated for the tumor growth inhibition on day 21 against M5076 sarcoma implanted sc in mice at a dose of 200 mg/kg/day. The note with it: 504 h, route subcutaneous, read-out: TGI.
The test system of assay [8] is Mus musculus. The experiment in a line: Compound was evaluated for the body weight change from day 1 to day 12 against M5076 sarcoma in mice at a sc dose of 300 mg/kg/day: toxic. The following applies: route subcutaneous.
For assay [9], the system named is Mus musculus. The assay is described as follows: Compound was evaluated for the tumor growth inhibition on day 21 against M5076 sarcoma implanted sc in mice at a dose of 300 mg/kg/day. The note with it: 504 h, route subcutaneous, read-out: TGI.
For assay [10], the system named is Mus musculus. The assay is described as follows: Compound was evaluated for the body weight change from day 1 to day 12 against M5076 sarcoma in mice at a sc dose of 300 mg/kg/day. The following applies: route subcutaneous.
For assay [11], the system named is Mus musculus. The assay is described as follows: Compound was evaluated for the percent increase in life span against M5076 sarcoma in mice at a sc dose of 25 mg/kg/day. The note with it: route subcutaneous.
Assay [12] has as its system Mus musculus. The experiment in a line: Compound was evaluated for the percent increase in life span against M5076 sarcoma in mice at a sc dose of 50 mg/kg/day. The note with it: route subcutaneous.
The subject of assay [13] is Mus musculus. The assay is described as follows: Compound was evaluated for the body weight change from day 1 to day 12 against M5076 sarcoma in mice at a sc dose of 25 mg/kg/day. The note with it: route subcutaneous.
The subject of assay [14] is Mus musculus. The experiment in a line: Compound was evaluated for the tumor growth inhibition on day 21 against M5076 sarcoma implanted sc in mice at a dose of 25 mg/kg/day. The note with it: 504 h, route subcutaneous, read-out: TGI.
Assay [15] has as its system Mus musculus. The assay is described as follows: Compound was evaluated for the tumor growth inhibition on day 21 against M5076 sarcoma implanted sc in mice at a dose of 50 mg/kg/day. The note with it: 504 h, route subcutaneous, read-out: TGI.
Assay [16] has as its system Mus musculus. The assay is described as follows: Compound was evaluated for the body weight change from day 1 to day 12 against M5076 sarcoma in mice at a sc dose of 50 mg/kg/day. The following applies: route subcutaneous.

As to `CCCCCCCCCCCCCC(=O)OCC(COP(=O)([O-])OC[C@H]1O[C@@H](n2ccc(N)nc2=O)[C@@H](C#N)[C@@H]1O)OC(=O)CCCCCCCCCCCCC.[Na+]` (stereo not given in full), the ILS at 100 mg/kg/day in [1] was found to be 4%. Further, the ILS at 200 mg/kg/day in assay [2] was 22%. The ILS at 300 mg/kg/day in assay [3] was 0%. For the same molecule, the Weight change amounted to 0.8 g in assay [4], 0.3 g in assay [5] and 1 g in assay [8]. For the same molecule, the inhibition in vivo at 100 mg/kg/day in assay [6] was found to be 80%. Further, the inhibition in vivo at 200 mg/kg/day in assay [7] amounted to 97%.

Regarding `CCCCCCCCCCCCCCCC(=O)OCC(COP(=O)([O-])OC[C@H]1O[C@@H](n2ccc(N)nc2=O)[C@@H](C#N)[C@@H]1O)OC(=O)CCCCCCCCCCCCCCC.[Na+]` (stereo not given in full), the ILS at 100 mg/kg/day in assay [1] stood at 21%. Further, in [2], the ILS at 200 mg/kg/day turned out to be 38%. For the same molecule, the ILS at 300 mg/kg/day in assay [3] was determined as 40%. The Weight change in [4] was 0.9 g; in assay [5], 0 g; in assay [10] it was 1 g. Moreover, in assay [6], the inhibition in vivo at 100 mg/kg/day is 93%. Also, the inhibition in vivo at 200 mg/kg/day in [7] is 98%. Also, the inhibition in vivo at 300 mg/kg/day in [9] is 100%.

Regarding `CCCCCCCC/C=C\CCCCCCCC(=O)OCC(COP(=O)([O-])OC[C@H]1O[C@@H](n2ccc(N)nc2=O)[C@@H](C#N)[C@@H]1O)OC(=O)CCCCCCC/C=C\CCCCCCCC.[Na+]` (stereo not given in full), the ILS at 100 mg/kg/day in assay [1] amounted to 13%. Further, in assay [2], the ILS at 200 mg/kg/day is -12%. In addition, the ILS at 25 mg/kg/day in assay [11] is -3%. The ILS at 300 mg/kg/day in assay [3] is -58%. The ILS at 50 mg/kg/day in assay [12] stood at 7%. Besides, the Weight change in assay [4] is on record as 0.6 g; in [5] it was 2 g; in assay [13], 1.6 g; in assay [10], 3 g; in [16], 0.8 g. The inhibition in vivo at 100 mg/kg/day in assay [6] amounted to 98%. Moreover, the inhibition in vivo at 25 mg/kg/day in assay [14] stood at 69%. Moreover, the inhibition in vivo at 50 mg/kg/day in [15] turned out to be 92%.

In the case of `CCCCC/C=C\C/C=C\CCCCCCCC(=O)OCC(COP(=O)([O-])OC[C@H]1O[C@@H](n2ccc(N)nc2=O)[C@@H](C#N)[C@@H]1O)OC(=O)CCCCCCC/C=C\C/C=C\CCCCC.[Na+]` (stereo not given in full), in [1], the ILS at 100 mg/kg/day is 15%. The ILS at 200 mg/kg/day in assay [2] is 10%. Besides, the ILS at 300 mg/kg/day in assay [3] came out at 15%. In addition, the Weight change in assay [4] is listed as -0.3 g; in assay [5], 1 g; in [10], 1 g. For the same molecule, the inhibition in vivo at 100 mg/kg/day in assay [6] came to 93%.

For `CCCCCCCCCCCCCCCCCC(=O)OCC(COP(=O)([O-])OC[C@H]1O[C@@H](n2ccc(N)nc2=O)[C@@H](C#N)[C@@H]1O)OC(=O)CCCCCCCCCCCCCCCCC.[Na+]` (stereo not given in full), the ILS at 100 mg/kg/day in assay [1] came out at 20%. In assay [2], the ILS at 200 mg/kg/day worked out at 49%. Besides, in [3], the ILS at 300 mg/kg/day is 60%. Besides, the Weight change in [4] is recorded as 1.2 g; in assay [5] it was -0.2 g; in assay [10], -0.3 g. Also, the inhibition in vivo at 100 mg/kg/day in [6] worked out at 88%. The inhibition in vivo at 200 mg/kg/day in [7] was found to be 97%. Besides, in assay [9], the inhibition in vivo at 300 mg/kg/day was 98%.

Regarding `N#C[C@H]1[C@H](O)[C@@H](CO)O[C@H]1n1ccc(N)nc1=O` [TAS-109], the ILS at 100 mg/kg/day in [1] is -11%. Moreover, the ILS at 200 mg/kg/day in [2] was -7%. The ILS at 300 mg/kg/day in [3] turned out to be 14%. Also, the Weight change in [4] came out at 1.1 g; in [5] it was 1.2 g; in assay [10], 1 g. Further, the inhibition in vivo at 100 mg/kg/day in assay [6] came to 38%. The inhibition in vivo at 200 mg/kg/day in [7] amounted to 47%. For the same molecule, the inhibition in vivo at 300 mg/kg/day in assay [9] turned out to be 67%.
